# Measured values: US9790231B2 (LUPIN LIMITED, priority 2013, dated 2017)
# System: IL-2 secretion by Jurkat T cells
# Assay: Inhibition of IL-2 secretion (PHA-stimulated Jurkat T cells, ELISA)
# Assay type: cell-based
# Conditions: Homo sapiens, 20 to 24 hours
# Experimental: The CRAC channel modulatory activity of the compounds were thus evaluated by measuring the secretion of IL-2 by antigen stimulated T-cells in vitro. Alternatively, such activity can also be evaluated by assay methods known to one skilled in the art.
# Inhibition of IL-2 secretion: Jurkat T cells were seeded at a density of 0.5 to 1 million cells per well in RPMI medium. Test compounds from this invention were added to the cells at different concentrations. This was followed by the addition of PHA, a T cell mitogen after 10 minutes. The cells were then incubated for 20 to 24 hours in a CO2 incubator at 37° C. After incubation with the compounds, cells were centrifuged; the supernatant was collected and processed for ELISA to quantitate the amount of IL-2 secreted. A commercial ELISA kit (R&D Systems, Inc. Minneapolis, Minn., USA) was used to estimate the IL-2 concentrations. Amount of IL-2 secreted by cells stimulated with PHA was considered as a 100% maximal signal and the decrease in amount of IL-2 secreted by cells treated with the test compounds was expressed as percent inhibition of the maximal signal. The dose response data was analyzed using 4-parametric sigmoidal dose response (variable slope) curve-fit.
row,IC50,SMILES
1,< 25 nM,"Cc1cc2c(cc1-c1ccc(C(=O)Nc3c(F)cncc3F)cc1)OC(C)(C)CC2 [Example 50, N-(3,5-Difluoropyridin-4-yl)-4-(2,2,6-trimethylchroman-7-yl)benzamide]"
2,100 to 500 nM,"COC(=O)C1(C)CC(=O)c2cc(C)c(-c3cnc(NC(=O)c4c(F)cccc4F)cn3)cc2O1 (stereo not shown) [Example 45, Methyl 7-(5-(2,6-difluorobenzamido)pyrazin-2-yl)-2,6-dimethyl-4-oxochroman-2-carboxylate]"
3,< 25 nM,"COCC1(C)C=C(c2ccc(NC(=O)c3c(F)cccc3F)nc2)c2cccc(C)c2O1 (stereo not shown) [Example 104, 2,6-Difluoro-N-(5-(2-(methoxymethyl)-2,8-dimethyl-2H-chromen-4-yl)pyridin-2-yl)benzamide]"
4,50 to 100 nM,"Cc1c(-c2ccc(NC(=O)c3c(F)cccc3F)cc2)ccc2c1OC1(CCC1)CC2 [Example 23, 2,6-Difluoro-N-(4-(8-methylspiro[chroman-2,1′-cyclobutan]-7-yl)phenyl)benzamide]"
5,25 to 50 nM,"Cc1cc2c(cc1-c1ccc(NCc3c(F)cccc3F)cc1)OC1(CCC1)CC2=O [Example 21, 7-(4-((2,6-Difluorobenzyl)amino)phenyl)-6-methylspiro[chroman-2,1′-cyclobutan]-4-one]"
6,< 25 nM,"Cc1cc2c(cc1-c1ccc(NCc3c(F)cccc3F)nc1)OC(C)(C)CC2=O [Example 35, 7-(6-((2,6-Difluorobenzyl)amino)pyridin-3-yl)-2,2,6-trimethylchroman-4-one]"
7,25 to 50 nM,"Cc1cccc2c1OC(C)(C)C=C2c1ccc(NC(=O)c2c(F)cccc2F)nc1 [Example 98, 2,6-Difluoro-N(5-(2,2,8-trimethyl-2H-chromen-4-yl)pyridin-2-yl)benzamide]"
8,50 to 100 nM,"CCc1cc2c(cc1-c1ccc(NC(=O)c3c(F)cccc3F)cc1)OC(C)(CO)CC2=O (stereo not shown) [Example 58, N-(4-(6-Ethyl-2-(hydroxymethyl)-2-methyl-4-oxochroman-7-yl)phenyl)-2,6-difluorobenzamide]"
9,< 25 nM,"CCc1cc2c(cc1-c1ccc(NC(=O)c3c(F)cccc3F)cc1)OC1(CCC1)CC2 [Example 24, N-(4-(6-Ethylspiro[chroman-2,1′-cyclobutan]-7-yl)phenyl)-2,6-difluorobenzamide]"
10,< 25 nM,"CCc1cc2c(cc1-c1ccc(C(=O)Nc3c(F)cncc3F)cc1)OC(C)(C)CC2=O [Example 42, N-(3,5-Difluoropyridin-4-yl)-4-(6-ethyl-2,2-dimethyl-4-oxochroman-7-yl)benzamide]"
11,< 25 nM,"CCc1cc2c(cc1-c1ccc(NC(=O)c3c(F)cccc3F)cc1)OC1(COC1)CC2=O [Example 125, N-(4-(6-Ethyl-4-oxospiro[chroman-2,3′-oxetan]-7-yl)phenyl)-2,6-difluorobenzamide]"
12,< 25 nM,"Cc1cc2c(cc1-c1ccc(C(=O)Nc3c(F)cncc3F)cc1)OC1(CCC1)CC2 [Example 66, N-(3,5-Difluoropyridin-4-yl)-4-(6-methylspiro[chroman-2,1′-cyclobutan]-7-yl)benzamide]"
13,50 to 100 nM,"Cc1ccc2c(c1)OC(C)(C)C=C2c1ccc(NC(=O)c2c(F)cccc2F)cc1 [Example 87, 2,6-Difluoro-N-(4-(2,2,7-trimethyl-2H-chromen-4-yl)phenyl)benzamide]"
14,25 to 50 nM,"Cc1cc2c(cc1-c1ccc(C(=O)Nc3c(F)cccc3F)cc1)OC1(CCC1)CC2 [Example 116, N-(2,6-Difluorophenyl)-4-(6-methylspiro[chroman-2,1′-cyclobutan]-7-yl)benzamide]"
15,100 to 500 nM,"O=C(Nc1ccc(C2CC3(CCC3)Oc3ccccc32)cc1)c1c(F)cccc1F (stereo not shown) [Example 69, 2,6-Difluoro-N-(4-(spiro[chroman-2,1′-cyclobutan]-4-yl)phenyl)benzamide]"
16,< 25 nM,"Cc1cc2c(cc1-c1ccc(C(=O)Nc3c(F)cncc3F)cc1)OC1(CCC1)CC2=O [Example 64, N-(3,5-Difluoropyridin-4-yl)-4-(6-methyl-4-oxospiro[chroman-2,1′-cyclobutan]-7-yl)benzamide]"
